Measurements from ChEMBL document CHEMBL4311942, “Design of Trp-Rich Dodecapeptides with Broad-Spectrum Antimicrobial Potency and Membrane-Disruptive Mechanism” (J Med Chem, 2019).
≈ marks a conversion by molar mass, not a printed value. One block for each compound: values may come before it. Where a SMILES comes first, the peptide text is derived from it.

Columns and labels:
[1] = test system: Staphylococcus aureus; test: Antibacterial activity against Staphylococcus aureus ATCC 25923 incubated for 18 to 24 hrs by broth microdilution method; format: functional
[2] = test system: Staphylococcus aureus; test: Antibacterial activity against Staphylococcus aureus ATCC 29213 incubated for 18 to 24 hrs by broth microdilution method; format: functional
[3] = test system: Salmonella typhimurium; test: Antibacterial activity against Salmonella enterica serovar typhimurium C77-31 incubated for 18 to 24 hrs by broth microdilution method; format: functional, Salmonella enterica subsp. enterica serovar Typhimurium
[4] = test system: Escherichia coli; test: Antibacterial activity against Escherichia coli UB1005 incubated for 18 to 24 hrs by broth microdilution method; format: functional
[5] = test system: Escherichia coli; test: Antibacterial activity against Escherichia coli ATCC 25922 incubated for 18 to 24 hrs by broth microdilution method; format: functional
[6] = test system: Staphylococcus epidermidis; test: Antibacterial activity against Staphylococcus epidermidis ATCC 12228 incubated for 18 to 24 hrs by broth microdilution method; format: functional
[7] = test system: Erythrocyte; test: Haemolytic activity in human erythrocytes assessed as lowest concentration causing 5% hemolysis after 1 hr; format: ADME, cell-based
[8] = Therapeutic index, ratio of MHC for human RBC to geometric mean of peptide MIC for Escherichia coli ATCC 25922; format: toxicity; conditions: pooled result: one value given for 6 cell lines, strains, targets or settings, read-out: TI
[9] = (§1) Cytotoxicity against mouse RAW264.7 cells assessed as cell survival at <= 32 uM after 24 hrs by MTT assay relative to control; format: cell-based; conditions: RAW264.7 cells, up to 32 µM, read-out: Activity
[10] = test system: Staphylococcus aureus; test: Antibacterial activity against Staphylococcus aureus ATCC 29213 incubated for 2 hrs in presence of sodium phosphate buffer at pH 2 by broth microdilution method; format: functional; conditions: ATCC 29213, 2 h
[11] = test system: Escherichia coli; test: Antibacterial activity against Escherichia coli ATCC 25922 using preheated compound at 100 degreeC for 1 hr by broth microdilution method; format: functional; conditions: ATCC 25922, 1 h
[12] = test system: Escherichia coli; test: Antibacterial activity against Escherichia coli ATCC 25922 in presence of NaCl by broth microdilution method; format: functional
[13] = test system: Escherichia coli; test: Antibacterial activity against Escherichia coli ATCC 25922 in presence of KCl by broth microdilution method; format: functional
[14] = test system: Escherichia coli; test: Antibacterial activity against Escherichia coli ATCC 25922 in presence of NH4Cl by broth microdilution method; format: functional
[15] = test system: Escherichia coli; test: Antibacterial activity against Escherichia coli ATCC 25922 in presence of MgCl2 by broth microdilution method; format: functional
[16] = test system: Escherichia coli; test: Antibacterial activity against Escherichia coli ATCC 25922 in presence of ZnCl2 by broth microdilution method; format: functional
[17] = test system: Escherichia coli; test: Antibacterial activity against Escherichia coli ATCC 25922 in presence of CaCl2 by broth microdilution method; format: functional
[18] = test system: Escherichia coli; test: Antibacterial activity against Escherichia coli ATCC 25922 in presence of FeCl3 by broth microdilution method; format: functional
[19] = test system: Escherichia coli; test: Antibacterial activity against Escherichia coli ATCC 25922 in presence of 12.5% serum by broth microdilution method; format: functional
[20] = test system: Escherichia coli; test: Antibacterial activity against Escherichia coli ATCC 25922 in presence of 25% serum by broth microdilution method; format: functional
[21] = test system: Escherichia coli; test: Antibacterial activity against Escherichia coli ATCC 25922 in presence of 50% serum by broth microdilution method; format: functional
[22] = test system: Escherichia coli; test: Antibacterial activity against Escherichia coli ATCC 25922 incubated for 2 hrs in presence of sodium phosphate buffer at pH 2 by broth microdilution method; format: functional; conditions: ATCC 25922, 2 h
[23] = test system: Escherichia coli; test: Antibacterial activity against Escherichia coli ATCC 25922 incubated for 2 hrs in presence of sodium phosphate buffer at pH 4 by broth microdilution method; format: functional; conditions: ATCC 25922, 2 h
[24] = test system: Escherichia coli; test: Antibacterial activity against Escherichia coli ATCC 25922 incubated for 2 hrs in presence of sodium phosphate buffer at pH 10 by broth microdilution method; format: functional; conditions: ATCC 25922, 2 h
[25] = test system: Escherichia coli; test: Antibacterial activity against Escherichia coli ATCC 25922 incubated for 2 hrs in presence of sodium phosphate buffer at pH 12 by broth microdilution method; format: functional; conditions: ATCC 25922, 2 h
[26] = test system: Escherichia coli; test: Antibacterial activity against Escherichia coli ATCC 25922 in presence of H202 by broth microdilution method; format: functional
[27] = test system: Escherichia coli; test: Antibacterial activity against Escherichia coli ATCC 25922 in presence of NaBH4 by broth microdilution method; format: functional
[28] = test system: Staphylococcus aureus; test: Antibacterial activity against Staphylococcus aureus ATCC 29213 using preheated compound at 100 degreeC for 1 hr by broth microdilution method; format: functional; conditions: ATCC 29213, 1 h
[29] = test system: Staphylococcus aureus; test: Antibacterial activity against Staphylococcus aureus ATCC 29213 in presence of NaCl by broth microdilution method; format: functional
[30] = test system: Staphylococcus aureus; test: Antibacterial activity against Staphylococcus aureus ATCC 29213 in presence of KCl by broth microdilution method; format: functional
[31] = test system: Staphylococcus aureus; test: Antibacterial activity against Staphylococcus aureus ATCC 29213 in presence of NH4Cl by broth microdilution method; format: functional
[32] = test system: Staphylococcus aureus; test: Antibacterial activity against Staphylococcus aureus ATCC 29213 in presence of MgCl2 by broth microdilution method; format: functional
[33] = test system: Staphylococcus aureus; test: Antibacterial activity against Staphylococcus aureus ATCC 29213 in presence of ZnCl2 by broth microdilution method; format: functional
[34] = test system: Staphylococcus aureus; test: Antibacterial activity against Staphylococcus aureus ATCC 29213 in presence of CaCl2 by broth microdilution method; format: functional
[35] = test system: Staphylococcus aureus; test: Antibacterial activity against Staphylococcus aureus ATCC 29213 in presence of FeCl3 by broth microdilution method; format: functional
[36] = test system: Staphylococcus aureus; test: Antibacterial activity against Staphylococcus aureus ATCC 29213 in presence of 12.5% serum by broth microdilution method; format: functional
[37] = test system: Staphylococcus aureus; test: Antibacterial activity against Staphylococcus aureus ATCC 29213 in presence of 25% serum by broth microdilution method; format: functional
[38] = test system: Staphylococcus aureus; test: Antibacterial activity against Staphylococcus aureus ATCC 29213 in presence of 50% serum by broth microdilution method; format: functional
[39] = test system: Staphylococcus aureus; test: Antibacterial activity against Staphylococcus aureus ATCC 29213 incubated for 2 hrs in presence of sodium phosphate buffer at pH 4 by broth microdilution method; format: functional; conditions: ATCC 29213, 2 h
[40] = test system: Staphylococcus aureus; test: Antibacterial activity against Staphylococcus aureus ATCC 29213 incubated for 2 hrs in presence of sodium phosphate buffer at pH 10 by broth microdilution method; format: functional; conditions: ATCC 29213, 2 h
[41] = test system: Staphylococcus aureus; test: Antibacterial activity against Staphylococcus aureus ATCC 29213 incubated for 2 hrs in presence of sodium phosphate buffer at pH 12 by broth microdilution method; format: functional; conditions: ATCC 29213, 2 h
[42] = test system: Staphylococcus aureus; test: Antibacterial activity against Staphylococcus aureus ATCC 29213 in presence of H202 by broth microdilution method; format: functional
[43] = test system: Staphylococcus aureus; test: Antibacterial activity against Staphylococcus aureus ATCC 29213 in presence of NaBH4 by broth microdilution method; format: functional
[44] = test system: RAW264.7; test: as §1; format: cell-based; conditions: raw264.7, 24 h
[45] = test system: Escherichia coli; test: Antibacterial activity against Escherichia coli 20411 clinical isolate incubated for 18 to 24 hrs by broth microdilution method; format: functional
[46] = test system: Acinetobacter baumannii; test: Antibacterial activity against Acinetobacter baumannii AB1901 clinical isolate incubated for 18 to 24 hrs by broth microdilution method; format: functional
[47] = test system: Acinetobacter baumannii; test: Antibacterial activity against Acinetobacter baumannii AB1902 clinical isolate incubated for 18 to 24 hrs by broth microdilution method; format: functional
[48] = test system: Pseudomonas aeruginosa; test: Antibacterial activity against Pseudomonas aeruginosa 25349 clinical isolate incubated for 18 to 24 hrs by broth microdilution method; format: functional
[49] = test system: Staphylococcus aureus; test: Antibacterial activity against Staphylococcus aureus 11011 incubated for 18 to 24 hrs by broth microdilution method; format: functional
[50] = test system: Escherichia coli; test: Antibacterial activity against ciprofloxacin-resistant Escherichia coli ATCC 25922 incubated for 18 to 24 hrs; format: functional
[51] = Resistance index, ratio of MIC for antibacterial activity against ciprofloxacin-resistant Escherichia coli to MIC for Escherichia coli ATCC 25922 incubated for 18 to 24 hrs by broth microdilution method; format: functional
[52] = test system: Lipopolysaccharide (LPS); test: Displacement of BODIPY-TR-cadaverine from Escherichia coli O111:B4 LPS assessed as increase in fluorescence intensity at 64 uM by spectrofluorophotometric method relative to control

MIC [1]: > 128 µM
MIC [2]: > 128 µM
MIC [3]: > 128 µM
MIC [4]: 64 µM (≈ 105 µg/mL)
MIC [5]: > 128 µM
MIC [6]: > 128 µM
MIC [10]: > 128 µM
MIC [11]: > 128 µM
MIC [12]: > 128 µM
MIC [13]: > 128 µM
MIC [14]: > 128 µM
MIC [15]: > 128 µM
MIC [16]: > 128 µM
MIC [17]: > 128 µM
MIC [18]: > 128 µM
MIC [19]: > 128 µM
MIC [20]: > 128 µM
MIC [21]: > 128 µM
MIC [22]: > 128 µM
MIC [23]: > 128 µM
MIC [24]: > 128 µM
MIC [25]: > 128 µM
MIC [26]: > 128 µM
MIC [27]: > 128 µM
MIC [28]: > 128 µM
MIC [29]: > 128 µM
MIC [30]: > 128 µM
MIC [31]: > 128 µM
MIC [32]: > 128 µM
MIC [33]: > 128 µM
MIC [34]: > 128 µM
MIC [35]: > 128 µM
MIC [36]: > 128 µM
MIC [37]: > 128 µM
MIC [38]: > 128 µM
MIC [39]: > 128 µM
MIC [40]: > 128 µM
MIC [41]: > 128 µM
MIC [42]: > 128 µM
MIC [43]: > 128 µM
Compound: CC(C)C[C@H](NC(=O)[C@H](CCCNC(=N)N)NC(=O)[C@H](CCCCN)NC(=O)[C@H](CCCNC(=N)N)NC(=O)[C@@H](NC(=O)[C@H](CCCCN)NC(=O)[C@H](CCCCN)NC(=O)[C@H](CCCNC(=N)N)NC(=O)[C@H](CC(C)C)NC(=O)[C@H](CCCNC(=N)N)NC(=O)[C@@H](N)CCCNC(=N)N)[C@@H](C)O)C(=O)N[C@@H](CCCCN)C(N)=O (H-RRLRKKTRKRLK-NH2)
MHC [7]: > 128 µM
selectivity ratio [8]: 1.26
viability at 24 h [9]: ≥ 70%

MIC [1]: 16 µM (≈ 28.1 µg/mL)
MIC [2]: 8 µM (≈ 14 µg/mL)
MIC [3]: 16 µM (≈ 28.1 µg/mL)
MIC [4]: 4 µM (≈ 7.02 µg/mL)
MIC [5]: 4 µM (≈ 7.02 µg/mL)
MIC [6]: 8 µM (≈ 14 µg/mL)
Compound: CC(C)C[C@H](NC(=O)[C@H](Cc1c[nH]c2ccccc12)NC(=O)[C@H](CCCCN)NC(=O)[C@H](CCCNC(=N)N)NC(=O)[C@@H](NC(=O)[C@H](Cc1c[nH]c2ccccc12)NC(=O)[C@H](CCCCN)NC(=O)[C@H](CCCNC(=N)N)NC(=O)[C@H](CC(C)C)NC(=O)[C@H](Cc1c[nH]c2ccccc12)NC(=O)[C@@H](N)CCCNC(=N)N)[C@@H](C)O)C(=O)N[C@@H](CCCCN)C(N)=O (H-RWLRKWTRKWLK-NH2)
MHC [7]: > 128 µM
selectivity ratio [8]: 32
Activity [44]: Non-Toxic

Compound: CC(C)(O/N=C(\C(=O)N[C@@H]1C(=O)N2C(C(=O)[O-])=C(C[n+]3ccccc3)CS[C@H]12)c1csc(N)n1)C(=O)O [CEFTAZIDIME]
MIC [1]: 32 µM (≈ 17.5 µg/mL)
MIC [2]: 16 µM (≈ 8.75 µg/mL)
MIC [3]: 0.5 µM (≈ 0.273 µg/mL)
MIC [4]: 0.25 µM (≈ 0.137 µg/mL)
MIC [5]: 0.5 µM (≈ 0.273 µg/mL)
MIC [6]: 16 µM (≈ 8.75 µg/mL)
MIC [45]: 0.25 µM (≈ 0.137 µg/mL)
MIC [46]: > 128 µM
MIC [47]: > 128 µM
MIC [48]: 32 µM (≈ 17.5 µg/mL)
MIC [49]: 16 µM (≈ 8.75 µg/mL)
MIC [50]: 16 µM (≈ 8.75 µg/mL)
Ratio [51]: 32

Compound: O=C(O)c1cn(C2CC2)c2cc(N3CCNCC3)c(F)cc2c1=O [CIPROFLOXACIN]
MIC [1]: 0.5 µM (≈ 0.166 µg/mL)
MIC [2]: 0.5 µM (≈ 0.166 µg/mL)
MIC [3]: 4 µM (≈ 1.33 µg/mL)
MIC [4]: 2 µM (≈ 0.663 µg/mL)
MIC [5]: 2 µM (≈ 0.663 µg/mL)
MIC [6]: 0.5 µM (≈ 0.166 µg/mL)
MIC [49]: 0.5 µM (≈ 0.166 µg/mL)
MIC [50]: 256 µM (≈ 84.8 µg/mL)
Activity [52]: 1.6%
